Data set [1] concerns HaCaT cells. Kind of data set: Cytotoxicity (LDH, CytoTox96) and cell viability (CCK-8) in HaCaT cells. The note with it: 24 hours, LDH and CCK-8 assays, FIG. 6. (In general: Tetrazolium assays rely on reduction of a dye to a coloured formazan, in cell work by metabolically active cells.)
Method: (§4) One day before treatment with cp-asiRNA(4)-1, 5.0×10^3MNT-1 cells or 1.0×10^4 HaCaT cells were seeded into 96 well plates. Immediately before treatment, the cells were washed with 1×DPBS buffer (Gibco), and then cultured in the presence of 1 μM or 3 μM of cp-asiRNATYR(4)-1 in OPTI-MEM buffer for 24 hours, at which point the cytotoxicity level was measured using a CytoTox96 Non-Radio Cytotoxicity assay (Promega) according to manufacturer's instructions. The media was then replaced with the serum-containing media and cell viability was measured using a cell counting kit-8 (Enzo) according to manufacturer's instructions.
Data set [2] has as its system MEL-300-B reconstructed skin model. In words: Light microscopy of melanocytes in reconstructed skin model MEL-300-B. The data set is classed as cell-based. The note with it: 5 μM every day for 13 days, day 14, light microscopy. The procedure: (§1) Tyrosinase expression and melanin level was analyzed in an cp-asiTYR#4-1 treated 3-D skin model. MEL-300-B (MatTek), a reconstructed skin model, was used in this study. MEL-300-B was stabilized in EPI-100-NMM-113 media 24 hours before treatment with cp-asiTYR#4-1. […] MEL-300-B samples were treated with cp-asiTYR#4-1 every day for 13 days (final concentration=5 μM) by adding cp-asiTYR#4-1 directly to the media. As a control, other MEL-300-B samples were treated with kojic acid (Sigma, 2% final) as depicted in FIG. 14(a). The samples were harvested at day 14 and the melanocytes in the sample were analyzed using light microscopy. […] Melanin level in each sample was analyzed using Fontana-Massons staining.

For data set [3], the system named is MNT-1 cells. In words: Cytotoxicity (LDH, CytoTox96) and cell viability (CCK-8) in MNT-1 cells. The note with it: 24 hours, LDH and CCK-8 assays, FIG. 6. The data set is classed as cell-based, human.
Method: as §4
Data set [4] has as its system HaCaT cells.
Method: as §4
Data set [5] deals with tyrosinase protein. In words: Western blot of tyrosinase protein in reconstructed skin model MEL-300-B. In kind it is cell-based. To be noted: 5 μM every day for 13 days, day 14, FIG. 14e. The procedure: as §1
Protein level analysis was conducted as using western blot. Harvested samples in RIPA buffer (GE) were homogenized by using homogenizer (IKA) and protein from the each sample was obtained. Fifteen micrograms of the total protein extract were loaded onto a 12% SDS-PAGE gel and electrophoresed at 120 V. After electrophoresis, the proteins were transferred to PVDF membrane (Bio-rad) that had been previously activated with methanol (Merck) for 1 hour at 300 mA. The membrane was blocked for 1 hour at the room temperature with 5% skim milk (Seoul Milk) and then incubated overnight at 4° C. in 5% skim milk containing anti-tyrosinase antibody (Santa Cruz) and anti-β-actin antibody (Santa Cruz). […]
A general note: Immunoblotting shows a protein as a band on a membrane.

For data set [6], the system named is MEL-300-B reconstructed skin model. In words: Fontana-Massons staining for melanin in reconstructed skin model MEL-300-B. In kind it is cell-based. To be noted: 5 μM every day for 13 days, day 14, Fontana-Massons staining. The procedure:
as §1

Data set [7] relates to MNT-1 cells. In words: Melanin content assay in treated MNT-1 cells. The data set is classed as cell-based, human. The note with it: 1 μM, 72 hours. The procedure:
(§2) MNT-1 cells were cultured in Minimum Essential Media (Welgene) containing 20% fetal bovine serum (Gibco), 100 μg/ml penicillin/streptomycin, 10% 200 mM HEPES (Welgene) and 10% Dulbecco's modified Eagle's medium (Welgene). One day prior to treatment, 6.5×10^4MNT-1 cells were seeded in 12-well plates.
MNT-1 cells treated with cp-asiTYR(4)-1 as described above were tested for melanin content. After 72 hours of incubation in the presence of cp-asiTYR, the MNT-1 cells were collected, lysed with RIPA buffer (GE) and centrifuged at 13000 rpm. The resulting melanin pellet was dissolved in 100 μL of 1N NaOH (containing 10% DMSO) at 85° C. for 15 minutes and light absorption and melanin production were measured.
MNT-1 cells treated with cp-asiTYR(4) 21AS-1 or cp-asiTYR(4) 19AS-5 as described above were tested for melanin content. After 72 hours of incubation in the presence of cp-asiTYR, the MNT-1 cells were collected, lysed with RIPA buffer (GE) and centrifuged at 13000 rpm. The resulting melanin pellet was dissolved in 100 μL of 1N NaOH (containing 10% DMSO) at 85° C. for 15 minutes and light absorption and melanin production were measured.
MNT-1 cells were cultured in Minimum Essential Media (Welgene) containing 20% fetal bovine serum (Gibco), 100 μg/ml penicillin/streptomycin, 10% 200 mM HEPES (Welgene) and 10% Dulbecco's modified Eagle's medium (Welgene). One day prior to treatment, 6.5×10^4MNT-1 cells were seeded in 12-well plates. Four hours prior to treatment, the cell media was replaced with 900 μL of FBS-containing media. The PF6-complexed asiRNA or lasiRNA was added to the cells and the cells were incubated for 24 hours, at which point the media was replaced. Tyrosinase mRNA levels were measured using real-time RT-PCR 24 hours after media replacement.
To test the treated MNT-1 cells for tyrosinase protein expression and melanin production, western blot and melanin content assays were performed as described above 48 hours after media replacement.

For data set [8], the system named is MNT-1 cells. Kind of data set: Color change (lightening) of MNT-1 cell pellets. The data set is classed as cell-based, human. To be noted: 1 μM or 3 μM, 72 hours, FIG. 5. The procedure:
as §2
After 72 hours, cells were pelleted and the color change of the cells was observed.

The test system of data set [9] is MEL-300-B reconstructed skin model. Kind of data set: Melanin content assay in reconstructed skin model MEL-300-B. The data set is classed as cell-based. To be noted: 5 μM every day for 13 days, day 14, FIG. 14(f). The procedure: as §1
To test melanin content, samples were harvested at day 14, lysed with RIPA buffer (GE) and centrifuged at 13000 rpm. The resulting pellet was dissolved in 100 μL of 1N NaOH (containing 10% DMSO) at 85° C. for 15 minutes and light absorption and melanin production were measured.

Data set [10] has as its system tyrosinase protein. In words: Western blot of tyrosinase protein expression in treated MNT-1 cells. The data set is classed as cell-based, human. The procedure: as §2
(§3) After 72 hours of cp-asiTYR(4)-1 incubation, the level of tyrosinase protein expression was determined via western blot. Briefly, the treated MNT-1 cells were lysed with RIPA buffer (GE). Fifteen μg of the total protein extract were loaded onto a 12% SDS-PAGE gel and electrophoresed at 120 V. After electrophoresis, the proteins were transferred to PVDF membrane (Bio-rad) already activated by methanol (Merck) for 1 hour at 300 mA. The membrane was blocked for 1 hour at the room temperature with 5% skim milk (Seoul Milk) and then incubated overnight at 4° C. in 5% skim milk containing anti-tyrosinase antibody (Santa Cruz) and anti-β-actin antibody (Santa Cruz). The membrane was then washed with 1×TBST for 10 minutes three times and was incubated for 1 hour at the room temperature in 5% skim milk with HRP-conjugated secondary antibody. The membrane was washed with 1×TBST for 10 minutes and treated with 1×ECL for 1 minute. The tyrosinase and β-actin bands were then imaged using a Chemidoc instrument (Bio-rad).
as §3, with “The level” for “After 72 hours of cp-asiTYR(4)-1 incubation, the level”, “expression by MNT-1 cells after treatment with 1 μM and 3 μM cp-asiRNAs” for “expression”, “the transfected” for “the treated”
The level of tyrosinase protein expression by MNT-1 cells after treatment with 1 μM, 0.6 μM, 0.3 μM and 0.1 μM cp-asiRNAs was determined via western blot. Briefly, the transfected MNT-1 cells were lysed with RIPA buffer (GE). […]

The subject of another data set is tyrosinase mRNA. In words: Tyrosinase mRNA level in reconstructed skin model MEL-300-B by real-time PCR. The data set is classed as cell-based. The note with it: 5 μM every day for 13 days, day 14, FIG. 14(d). The procedure:
as §1
In order to analyze mRNA level at day 14, samples were harvested in Isol-RNA lysis reagent (5PRIME) and homogenized by using a homogenizer (IKA). Total RNA from the each sample was extracted. For each sample, 500 ng of the extracted RNA was used for cDNA synthesis using the high-capacity cDNA reverse transcription kit (Applied Biosystems) according to the manufacturer's instructions. Quantitative real-time PCR was then performed using the StepOne real-time PCR system (Applied Biosystems). Amplification of the tyrosinase cDNA was detected using a power SYBR green PCR master Mix (Applied Biosystems). GAPDH was amplified as an internal control.
Background: In qPCR the cycle at which signal appears reflects the starting amount.

Where two headings read alike, the source gives them in different places. Oligonucleotides are written 5' to 3', each unit as a sugar letter and its base; * is a phosphorothioate linkage, no mark a phosphodiester; rarer units and linkages stand in square brackets, end groups in braces. Plain capitals give the bases only. {Chol} = cholesterol conjugate; m = 2'-O-methyl; r = 2'-OH (RNA)

Regarding `Oc1ccc(O)cc1` [hydroquinone], the “cytotoxicity / cell viability” value in the data set on HaCaT cells [1] is given as “cytotoxicity was observed”.

Consider “cp-asiTYR(4)-1: S: GCUGACAGGAGAUG*A*A*cholesterol (SEQ ID NO: 131); AS: UUCAUCUCCUGUCAGCU*U*C*U*G (SEQ ID NO: 132) (sense GCUGACAGGAGAUGAA; antisense UUCAUCUCCUGUCAGCUUCUG; siRNA; sense: linkages o13 s2 (s phosphorothioate, o phosphodiester), 3' *{Chol}, sugars by position and methylation of C not given here; antisense: linkages o16 s4 (s phosphorothioate, o phosphodiester), sugars by position and methylation of C not given here)”, for which the level of melanocytes entry in [2] was “reduced the level of melanocytes”. Moreover, the “cytotoxicity / cell viability” value in the data set with MNT-1 cells [3] and in the data set on HaCaT cells [4] was “no cytotoxicity or loss of cell viability was observed” throughout. In the data set with tyrosinase protein [5], the tyrosinase protein level entry was “potent knockdown of tyrosinase protein”. Also, in data set [6], the level of melanin entry is recorded as “reduced the level of melanin”. In the data set with MNT-1 cells [7] (FIG. 4), the “inhibition in melanin production compared with hydroquinone and arbutin” value was “higher than when treated with compounds commonly used for melanin production, including hydroquinone (20 μM) and arbutin (2 mM)”. The “inhibition in melanin production” value in the data set on MNT-1 cells [7] (FIG. 9) is around 50%; in the data set with MNT-1 cells [7] (without transfection vehicle, FIG. 4), “greater than 60%”. The “inhibition in melanin production compared with arbutin” value with MNT-1 cells [7] (FIG. 9) is recorded as “higher than the inhibition shown in MNT-1 cells treated with 2 mM arbutin”. Also, the “color of treated cells” value in the data set on MNT-1 cells [8] is “lighter than untreated MNT-1 control cells (NT), hydroquinone treated cells and arbutin treated cells”. Also, in data set [9], the “melanin level (melanin content)” value is “reduced melanin level”. The same molecule gave a tyrosinase protein inhibition in the data set with tyrosinase protein [10] (1 μM or 3 μM, 72 hours, without transfection vehicle, FIG. 3) of at least 70%. Further, in the data set on tyrosinase protein [10] (1 μM to 0.1 μM, FIG. 10), the “relative inhibitory activity on tyrosinase protein” value is “slightly higher inhibitory activity than cp-asiTYR(4) 19AS-7”. Also, the “tyrosinase inhibition ability compared with other tyrosinase inhibitors” value with tyrosinase protein [10] (72 hours, western blot, FIG. 3) is “higher efficiency in the tyrosinase inhibition ability than other tyrosinase inhibitors such as Hydroquinone and Arbutin”. Besides, in the data set with tyrosinase mRNA, the “level of tyrosinase mRNA” value is reported as “reduced the level of tyrosinase mRNA”.

For the molecule `OC[C@H]1O[C@@H](Oc2ccc(O)cc2)[C@H](O)[C@@H](O)[C@@H]1O` [arbutin], the “cytotoxicity / cell viability” value with HaCaT cells [1] was “cytotoxicity was observed”.

Take “cp-asiTYR(4) 19AS-5: S: GCUGACAGGAGAUG*A*A*cholesterol (SEQ ID NO: 131); AS: UUCAUCUCCUGUCAG*C*mU*mU*mC (SEQ ID NO: 160) (sense rGrCrUrGrArCrArGrGrArGrArUrG*rA*rA*{Chol}; antisense rUrUrCrArUrCrUrCrCrUrGrUrCrArG*rC*mU*mU*mC; siRNA)”: in the data set on MNT-1 cells [7] (FIG. 9), the “inhibition in melanin production” value is around 50% and the “inhibition in melanin production compared with arbutin” value is “higher than the inhibition shown in MNT-1 cells treated with 2 mM arbutin”. Moreover, the “relative inhibitory activity on tyrosinase protein” value in the data set with tyrosinase protein [10] (1 μM and 3 μM, FIG. 8) is “slightly higher inhibitory activity than cp-asiTYR(4) 21AS-1”.
